In paper PMC11346426, “1-Deoxy-D-xylulose 5-phosphate reductoisomerase as target for anti Toxoplasma gondii agents: crystal structure, biochemical characterization and biological evaluation of inhibitors” (Biochemical Journal, 2024):
Where two headings read alike, the source gives them in different places.

What was measured:
[1] = molecular target: T1, TgDXR (Toxoplasma gondii, UniProt S8ESX0); experiment: T. gondii DXR enzyme inhibition assay (NADPH oxidation, absorption at 340 nm); type: biochemical; details: for Ki: Ki = IC50/(1 + [S]/Km), [S] = 100 µM DXP, Km = 30.58 µM
Description: The enzymatic assays were conducted at 30°C in 96 well plates using a total reaction volume of 150 µl containing 100 nM of purified TgDXR protein in dimeric state, 100 µM of NADPH and 4 mM of MgCl2 as cofactors, 100 µM of DXP as substrate in 50 mM HEPES buffer (pH 7.5) containing 50 µg/ml of BSA. For the screening, DXR inhibitors were tested for their inhibitory activity and their IC50 measurements at concentrations ranging from 100 µM to 3.05 nM, in dilution steps 1:2.
To optimize and to ensure the interaction of NADPH and its enzyme binding pocket, the assay solution was incubated for 10 min at 37°C. Then, the reaction was commenced with the addition of 100 µM of DXP to the complete assay mixture. The reaction was monitored by measuring the absorption at 340 nm every minute for 1 h using a microplate reader (Tecan® 200 Pro, Tecan Group, Männedorf, Switzerland). The initial velocity of the reactions were calculated, the values were then used in the software GraphPad PRISM™ (Version 9.5.1; San Diego, CA, U.S.A.) for determinations of the IC50 values.

[2] = test system: T. gondii ME49 tachyzoites; experiment: T. gondii in vitro growth assay ([3H]-uracil incorporation); type: cell-based, Toxoplasma gondii; details: for activity against T. gondii growth (in words): T. gondii type II ME49 strain, [3H]-uracil incorporation; for IC50: Toxoplasma gondii, T. gondii type II ME49 strain in Hs27 host cells, n = 6
Description: With the aim to assess the inhibitory in vitro effect on parasite growth, T. gondii growth assays were performed as described previously [[78-80]]. Compounds, previously diluted in culture media in appropriate stock solutions, were added to confluent monolayers of Hs27 cells in 96-flat well plates at various concentrations. Then, freshly harvested tachyzoites were added to the cultures at a multiplicity of infection of 1:1 (parasite/host cell ratio). As controls, untreated and uninfected Hs27 cells, 24 h pre-stimulated and T. gondii infected cells with human interferon γ (IFN γ) (300 U/ml) (Merck, Darmstadt, Germany, #I17001) and T. gondii infected cells only were employed. After 48 h incubation, proliferating toxoplasmas were labelled with 0.3 μCi/well of tritiated uracil (^3H-U; 5 mCi, Hartmann Analytic, Braunschweig, Germany, #ART1782). After 28-30 h of incubation, plates were frozen at -20°C overnight. Cells were then thawed and harvested (Basic96 Harvester; Zinsser Analytic, Skatron Instruments, Northridge, CA, U.S.A.), purified with glass fibre filters (Printed Filtermat A 102 mm × 258 mm; PerkinElmer, Waltham, MA, U.S.A.) and dried at 130°C for 15-20 min. Dried filters were then wrapped into transparent plastic covers, dunked with 10 ml scintillation cocktail (Betaplate Scint; PerkinElmer, Waltham, MA, U.S.A., #1205-440), sealed and then loaded into metal cassettes and the incorporation of ^3H-uracil into the RNA of proliferating toxoplasmas was measured using a β-counter, a liquid scintillation counter that measure the […] (Betaplate Liquid Scintillation Counter 1205; LKB-[…], Melbourne, Australia). All data sets were normalized to 100% of the positive control. The dose-response curves of the compounds were fitted by means of the statistics software GraphPad PRISMTM (Version 9.5.1; San Diego, CA, U.S.A.). The minimal concentrations of compounds required for 50% inhibition of the parasite (IC50 values) were determined by non-linear regression analysis. Pyrimethamine was used as reference anti-toxoplasma compound.

[3] = MTT cytotoxicity assay on host cells; type: cell-based; details: human, Hs27 fibroblasts, 24 h incubation
Description: The method based on the reduction of the tetrazolium dye MTT [3-(4,5-dimethylthiazole-2-yl)-2,5-diphenyltetrazolium bromide] to its purple insoluble formazan by mitochondrial NAD(P)H-dependent cellular oxidoreductase enzymes in living cells, previously described by Mosmann was employed to assess the cytotoxic effects of the examined DXR inhibitors on the host cells, as previously described [[78–80]]. Briefly, Hs27 cells were cultured in 96-well plates at a concentration of 5 × 10^4/well in (IMDM, Gibco–Thermo Fisher Scientific, Waltham, MA, U.S.A., #12440053) with a volume of 100 µl per well and incubated at 37°C overnight. Then, eleven two-fold serially diluted concentrations of the investigated compounds ranging from […] were prepared and added to each well. Hs27 cells were then incubated for 24 h in humidified atmosphere of 5% CO2 in air. Controls included wells containing medium alone without cells (blank), untreated Hs27 cells, DMSO (negative control) and staurosporine (0.031, 0.062, 0.125, 0.25, 0.5, 1 µM) (Merck, Darmstadt, Germany, #S4400) as apoptosis inducer. After incubation, the culture media was replaced with 100 µl of DMEM medium without phenol (Gibco-Thermo Fisher Scientific, Waltham, MA, U.S.A., #21041025) plus 10% heat-inactivated (FBS Standard, South America origin, FBS, 2 µm sterile filtered, PAN-Biotech, Aidenbach, Germany, #P30-3306), and […] 2-mercaptoethanol (Gibco-Thermo Fisher Scientific, Waltham, MA, U.S.A., #21985023). Thereafter, the MTT reagent was added to each well and analysis conducted following the manufacture instructions (CyQuant MTT Cell Viability Assay Kit, Thermo Fisher Scientific, Waltham, MA, U.S.A., #V-13154). The absorbance was measured at 570 nm on an ELISA microplate reer (TECAN Sunrise, Männedorf, Switzerland) and the percentage of viability was calculated when compared with the untreated control. The data set was subsequently adjusted by applying blank correction. Cell viability values expressed as percentage of the negative control value were calculated as follows: %Cellviability=meanabsorbanceoftreatedwells−blank/meanabsorbanceofnegativecontrol−blank×100. The cytotoxicity of each compound was expressed as half maximal cytotoxic concentration (CC50 values) against Hs27 cells. These values were calculated by a non-linear regression using GraphPad PRISM™ statistics software package (Version 9.5.1; San Diego, CA, U.S.A.) plotting the percentage viability against the log of compound concentrations.

[4] = molecular target: T1, TgDXR; experiment: TgDXR enzyme kinetic characterization (Michaelis-Menten); type: biochemical; details: 100 nM TgDXR, substrate or cofactor varied 7.8 to 500 µM; n = 8
Description: (§1) To biochemically characterize the catalytic ability of the truncated TgDXR for the conversion of DXP into MEP in the presence of the cofactors Mg^2+ and NADPH, and to determine the optimum conditions for maximum enzyme activity, the enzymatic assays were monitored at 340 nm (maximal absorbance of NADPH) in different conditions.
(§2) The enzymatic activity was evaluated in fixed conditions, using 50 mM HEPES buffer containing 50 µg/ml of bovine serum albumin (BSA) containing 100 nM of purified TgDXR protein in dimeric state. In each experimental evaluation, only one parameter was varied: either the substrate (DXP) concentration (ranging from 7.8 to 500 µM), or the cofactor NADPH (ranging from 7.8 to 500 µM), or Mg^2+ concentration (ranging from 1 to 6 mM) or the pH (ranging from 5.5 to 9) (Figure 3).
(§3) For the determination of the kinetic parameters, various concentration of the substrate DXP or NADPH were employed for the determination of the apparent Km (substrate concentration that yield a half-maximal velocity) and Vmax (maximum velocity) for the enzyme. These parameters were calculated by a non-linear regression with the software GraphPad PRISM™ (Version 9.5.1; San Diego, CA, U.S.A.) plotting the initial velocity of the reactions and using the Michaelis–Menten model (Figure 3).

[5] = test system: human fibroblasts Hs27; experiment: MTT cytotoxicity assay on host cells; type: cell-based; details: concentration range 0.19–200 µM
[6] = substrate: CC(=O)[C@@H](O)[C@H](O)COP(=O)(O)O; experiment: TgDXR enzyme kinetic characterization (Michaelis-Menten); type: biochemical, Toxoplasma gondii; details: other: 100 nM TgDXR, substrate or cofactor varied 7.8 to 500 µM; n = 8
Description: as §1, §2, §3

[7] = 100 nM truncated His10-TgDXR, 100 µM NADPH, 4 mM MgCl2, 100 µM DXP, pH 7.5, 30°C, n = 6, read-out: IC50 ± S.D.

COc1cc(OC)cc(C(SCC(=O)N(C)O)P(=O)(O)O)c1 (stereo not drawn) [Compound 6, ((3,5-dimethoxyphenyl)((2-(hydroxy(methyl)amino)-2-oxoethyl)thio)methyl)phosphonic acid]
IC50 [1, 7]: 3.9 ± 1.06 µM
Ki [1]: 1.18 µM
activity against T. gondii growth (in words) [2]: demonstrated activity
IC50 [2]: 12.5 ± 5.56 µM
CC50 at 24 h [3]: > 200 µM

CN(O)C(=O)COC(c1ccccc1)P(=O)(O)O (stereo not drawn) [Compound 7, ((2-(hydroxy(methyl)amino)-2-oxoethoxy)(phenyl)methyl)phosphonic acid]
IC50 [1, 7]: 5.82 ± 1.52 µM
activity against T. gondii growth (in words) [2]: demonstrated activity
IC50 [2]: 48.2 ± 8.56 µM
CC50 at 24 h [3]: > 200 µM

Cc1ccc(C(OCC(=O)N(C)O)P(=O)(O)O)cc1 (stereo not drawn) [Compound 10, ((2-(hydroxy(methyl)amino)-2-oxoethoxy)(p-tolyl)methyl)phosphonic acid]
IC50 [1, 7]: 7.68 ± 0.87 µM
Ki [1]: 2.51 µM
IC50 [2]: > 100 µM
CC50 at 24 h [3]: > 200 µM

NADPH
Km [4]: 51.3 ± 11.8 µM

CN(O)C(=O)COC(c1ccc(F)c(F)c1)P(=O)(O)O (stereo not drawn) [Compound 8, ((3,4-difluorophenyl)(2-(hydroxy(methyl)amino)-2-oxoethoxy)methyl)phosphonic acid]
IC50 [1, 7]: 52.14 ± 0.34 µM
IC50 [2]: > 100 µM
CC50 at 24 h [3]: > 200 µM

CN(O)C(=O)COC(c1ccc(Cl)c(Cl)c1)P(=O)(O)O (stereo not drawn) [Compound 9, ((3,4-dichlorophenyl)(2-(hydroxy(methyl)amino)-2-oxoethoxy)methyl)phosphonic acid]
IC50 [1, 7]: 2.44 ± 0.43 µM
Ki [1]: 0.74 µM
IC50 [2]: > 100 µM
CC50 at 24 h [3]: > 200 µM

CN(O)C(=O)CSC(c1cc(F)cc(F)c1)P(=O)(O)O (stereo not drawn) [Compound 5, ((3,5-difluorophenyl)((2-(hydroxy(methyl)amino)-2-oxoethyl)thio)methyl)phosphonic acid]
IC50 [1, 7]: 2.45 ± 0.54 µM
Ki [1]: 0.74 µM
activity against T. gondii growth (in words) [2]: demonstrated activity
IC50 [2]: 56 ± 6.11 µM
CC50 at 24 h [3]: > 200 µM

CCc1nc(N)nc(N)c1-c1ccc(Cl)cc1 [Pyrimethamine, pyrimethamine, reference compound]
IC50 [2]: 0.22 ± 0.05 µM
CC50 at 24 h [3]: > 100 µM

CN(O)C(=O)CSC(c1ccc(F)c(F)c1)P(=O)(O)O (stereo not drawn) [Compound 3, ((3,4-difluorophenyl)((2-(hydroxy(methyl)amino)-2-oxoethyl)thio)methyl)phosphonic acid]
IC50 [1, 7]: 0.64 ± 0.38 µM
Ki [1]: 0.19 µM
activity against T. gondii growth (in words) [2]: demonstrated activity
IC50 [2]: 14.4 ± 1.94 µM
CC50 at 24 h [3]: > 200 µM

O=CN(O)CCCP(=O)(O)O [Compound 1, Fosmidomycin, reference compound]
IC50 [1]: 1.03 ± 0.21 µM
activity against T. gondii growth (in words) [2]: no activity
IC50 [2]: > 200 µM
CC50 at 24 h [3]: > 200 µM
host cell cytotoxicity (in words) [5]: did not show any detectable host cytotoxicity

CN(O)C(=O)CSC(c1ccc(Cl)c(Cl)c1)P(=O)(O)O (stereo not drawn) [Compound 4, ((3,4-dichlorophenyl)((2-(hydroxy(methyl)amino)-2-oxoethyl)thio)methyl)phosphonic acid]
IC50 [1, 7]: 0.62 ± 0.12 µM
Ki [1]: 0.19 µM
activity against T. gondii growth (in words) [2]: demonstrated activity
IC50 [2]: 5.46 ± 1.22 µM
CC50 at 24 h [3]: > 200 µM

CN(O)C(=O)CSC(c1ccccc1)P(=O)(O)O (stereo not drawn) [Compound 2, (((2-(hydroxy(methyl)amino)-2-oxoethyl)thio)(phenyl)methyl)phosphonic acid]
IC50 [1, 7]: 1.23 ± 0.12 µM
Ki [1]: 0.37 µM
IC50 [2]: > 100 µM
CC50 at 24 h [3]: > 200 µM

B1: TgDXR (Toxoplasma gondii ME49) (protein)
chain: PSTRVKRLVVLGSTGSIGKSTLEIAREFPDIFQIVGLAAGGSNLALLAEQVAAFRPQYVYLGDSSKVAELQERLNDHERSAAFPRPRLLLGDEGLAELACVPNYDILVSAIVGFKGVLPTLKALEAGKDVALANKEALVAAGPVFRCLLSTRGLLYGDQERQDRHERSHRSGDQEGDREEDTDGDRREECDKRRAKAGQKCGLLLPVDSEHSAIFQALQGVPASCYPPRKLLLTASGGPFRGRTRDELEQVTLESALKHPKWSMGAKITIDSATLMNKGLEVIEAHFAFGCPYSSIEVLVHPQAVIHSAVELRDGATLAQLGLPDMKLPIAYALTWPHRLAAPWSAGVDLTREGNLTFEKPDLNTFGCLGLAYEAGERGGVAPACLNAANEVAVERFRNKEIGFVDIEDTVRHVMALQERERDNFSDVSLQDVFDADHWARTAARAFKPRK
Km [6]: 30.58 ± 6.33 µM
